Experimental data published in patent publication US20140163012A1, “PYRIDO-/AZEPINO-BENZOFURAN AND PYRIDO-/AZEPINO-BENZOTHIOPHENE MCH-1 ANTAGONISTS, METHODS OF MAKING, AND USE THEREOF” (Albany Molecular Research, Inc., priority 2012, published 2014).

Tests used:
human MCH-1 receptor = human MCH-1 receptor (Homo sapiens, UniProt Q99705); experiment: Binding assay for human melanin-concentrating hormone (MCH-1) receptor, radioligand displacement on CHO-K1 cell membranes; details: for inhibition at 1 µM: read-out: MCH1 % inhibition @ 1 uM
Sequence of human MCH-1 receptor (Q99705 whole entry): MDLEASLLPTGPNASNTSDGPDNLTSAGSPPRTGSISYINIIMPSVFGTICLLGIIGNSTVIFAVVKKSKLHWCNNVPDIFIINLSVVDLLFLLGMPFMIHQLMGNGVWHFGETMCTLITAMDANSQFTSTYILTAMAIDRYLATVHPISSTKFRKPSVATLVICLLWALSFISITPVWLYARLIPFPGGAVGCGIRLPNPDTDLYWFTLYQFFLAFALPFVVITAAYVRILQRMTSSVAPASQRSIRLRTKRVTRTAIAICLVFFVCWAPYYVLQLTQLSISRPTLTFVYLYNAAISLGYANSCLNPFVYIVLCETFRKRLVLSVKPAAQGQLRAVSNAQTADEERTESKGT
Procedure: Nonspecific binding was determined in the presence of 50 μM 1-(5-(4-cyanophenyl)bicyclo[3.1.0]hexan-2-yl)-3-(4-fluoro-3-(trifluoromethyl)phenyl)-1-(3-(4-methylpiperazin-1-yl)propyl)urea. […] The filters were counted for radioactivity in a liquid scintillation counter (Tri-Carb 2100TR, Packard) using a scintillation cocktail (Ultima Gold MV, Perkin Elmer).
The results are expressed as a percent inhibition of the control radioligand specific binding. The IC50 value (concentration causing a half-maximal inhibition of control specific binding) and Hill coefficient (nH) were determined by non-linear regression analysis of the competition curve using Hill equation curve fitting.

Row | SMILES | melting point [°C] | Ki (human MCH-1 receptor) [nM] | inhibition at 1 µM (human MCH-1 receptor) [%]
1 | Cl.O=c1nc(CCc2ccc(Cl)cn2)ccn1-c1ccc2c3c(oc2c1)CCNC3 [Example 101, 4-(2-(5-Chloropyridin-2-yl)ethyl)-1-(1,2,3,4-tetrahydrobenzofuro[3,2-c]pyridin-7-yl)pyrimidin-2(1H)-one hydrochloride] | 155 to 160 | 20 | 
2 | Cl.O=c1cc(CCc2ccc(F)cn2)ccn1-c1ccc2c3c(oc2c1)CCNC3 [Example 102, 4-(2-(5-Fluoropyridin-2-yl)ethyl)-1-(1,2,3,4-tetrahydrobenzofuro[3,2-c]pyridin-7-yl)pyridin-2(1H)-one hydrochloride] | 165 to 169 | 29 | 
3 | COc1ccc(-c2ccn(-c3ccc4c5c(oc4c3)CCNC5)c(=O)c2)c(F)c1.Cl [Example 111, 4-(2-Fluoro-4-methoxyphenyl)-1-(1,2,3,4-tetrahydrobenzofuro[3,2-c]pyridin-7-yl)pyridin-2(1H)-one hydrochloride] | 282 to 284 | 16 | 
4 | Cl.O=c1cc(OCc2ccc(C(F)(F)F)nn2)ccn1-c1ccc2c3c(oc2c1)CCNC3 [Example 113, 1-(1,2,3,4-Tetrahydrobenzofuro[3,2-c]pyridin-7-yl)-4-((6-(trifluoromethyl)pyridazin-3-yl)methoxy)pyridin-2(1H)-one hydrochloride] | 289 to 291 | 20 | 
5 | Cl.O=c1cc(OCc2ccccc2)ccn1-c1ccc2sc3c(c2c1)CNCCC3 [Example 118, 4-Benzyloxy-1-(2,3,4,5-tetrahydro-1H-benzo[4,5]thieno[3,2-c]azepin-9-yl)pyridin-2(1H)-one hydrochloride] | 176 to 178 |  | 7.7
6 | Cl.O=c1cc(OCc2ccc(F)cn2)ccn1-c1ccc2sc3c(c2c1)CNCCC3 [Example 119, 4-((5-Fluoropyridin-2-yl)methoxy)-1-(2,3,4,5-tetrahydro-1H-benzo[4,5]thieno[3,2-c]azepin-9-yl)pyridin-2(1H)-one hydrochloride] | 170 to 172 |  | -2.6
7 | Cl.O=c1cc(OCc2ccc(F)cn2)ccn1-c1ccc2sc3c(c2c1)CCCNC3 [Example 120, 4-(5-Fluoropyridin-2-ylmethoxy)-1-(2,3,4,5-tetrahydro-1H-benzo[4,5]thieno[2,3-c]azepin-7-yl)pyridin-2(1H)-one hydrochloride] | 180 to 182 |  | 1.3

The remaining lines, values ahead:

Row | melting point [°C] | Ki (human MCH-1 receptor) [nM] | inhibition at 1 µM (human MCH-1 receptor) [%] | SMILES
8 | 283 to 289 | 6.6 |  | Cl.O=c1cc(CCc2ccccc2)ccn1-c1ccc2c3c(oc2c1)CCNC3 [Example 104, 4-Phenethyl-1-(1,2,3,4-tetrahydrobenzofuro[3,2-c]pyridin-7-yl)pyridin-2(1H)-one hydrochloride]
9 | 285 to 288 | 12 |  | Cl.O=c1cc(CCc2ccc(Cl)cn2)ccn1-c1ccc2c3c(oc2c1)CCNC3 [Example 105, 4-(2-(5-Chloropyridin-2-yl)ethyl)-1-(1,2,3,4-tetrahydrobenzofuro[3,2-c]pyridin-7-yl)pyridin-2(1H)-one hydrochloride]
10 | 294 to 297 | 6.9 |  | COc1ccc(-c2ccn(-c3ccc4c5c(oc4c3)CCNC5)c(=O)c2)c(Cl)c1.Cl [Example 112, 4-(2-Chloro-4-methoxyphenyl)-1-(1,2,3,4-tetrahydrobenzofuro[3,2-c]pyridin-7-yl)pyridin-2(1H)-one hydrochloride]
11 | 299 to 301 | 7.3 |  | Cc1cc(OC(F)(F)F)ccc1-c1ccn(-c2ccc3c4c(oc3c2)CCNC4)c(=O)c1.Cl [Example 114, 4-(2-Methyl-4-(trifluoromethoxy)phenyl)-1-(1,2,3,4-tetrahydrobenzofuro[3,2-c]pyridin-7-yl)pyridin-2(1H)-one hydrochloride]
